Data taken from paper PMC7600788, “Sequence Permutation Generates Peptides with Different Antimicrobial and Antibiofilm Activities” (Pharmaceuticals, 2020).
Where two headings read alike, the source gives them in different places. No end group written: not given here.

Columns and labels:
[1] = test system: PMA differentiated THP-1 cells; assay: MTS cytotoxicity assay; assay type: cell-based; conditions: PMA differentiated THP-1, serum free media, one hour treatment
Description: (§1) Peptides were assayed for potential in vitro toxicity against human keratinocytes (HaCaT) and THP-1 cells as previously described. THP-1 monocytes were differentiated into macrophages by adding 30 ng/mL of phorbol 12-myristate 13-acetate (PMA; Sigma-Aldrich) to RPMI 1640 supplemented with 10% fetal calf serum culture (FCS) medium for 16 h. Briefly, cells were seeded at a density of 3 × 10^4 per well in a tissue culture 96-well plate in DMEM/RPMI supplemented with 10% fetal bovine serum (FBS), and incubated at 37 °C in a 5% CO2 atmosphere for 24 h. African green monkey kidney Vero E6 cells were cultivated in EMEM in the same manner. Before antimicrobial treatment, wells were replaced with serum free media and treated with peptides at different concentrations for one hour. After incubation, the cells were washed and incubated with 100 μL of DMEM media containing 20 μL of 3-(4,5-dimethylthiazol-2-yl)-5-(3-carboxymethoxyphenyl)-2-(4-sulfophenyl)-2H-tetrazolium (MTS) reagent for two hours at 37 °C. The treatment time was one hour in the case of Vero E6 cells. Absorbance readings at 492 nm were taken using a ChroMate microplate reader (GMI, Ramsey, MN, USA).

[2] = test system: human keratinocytes (HaCaT); assay: MTS cytotoxicity assay; assay type: cell-based; conditions: serum free media, one hour treatment
Description: as §1

[3] = test system: S. aureus Mu50; assay type: cell-based, Staphylococcus aureus
Description: (§2) The antimicrobial activity spectrum of the WW peptide series was performed on a panel of Gram-positive and -negative bacteria using the standard broth micro-dilution method with minor modifications as described. […] There was a small change in the case of Pseudomonas aeruginosa and Acinetobacter baumannii up to two-fold. Four-fold changes were found for Staphylococcus aureus, Staphylococcus epidermidis, Escherichia coli, and Bacillus subtilis. However, we observed over eight-fold MIC changes for Klebsiella pneumoniae and vancomycin-resistant enterococcus (VRE). […] We also observed more than eight-fold changes in minimal bacterial killing concentrations.
(§3) The antibacterial activity of peptides was evaluated using a standard broth microdilution protocol with minor modifications as previously described. In brief, logarithmic phase bacterial cultures (i.e., optical density at 600 nm ≈ 0.5) were diluted to OD600~0.001 and partitioned into a 96-well polystyrene microplate at 90 μL per well. After treatment with 10 μL of peptide solutions two-fold diluted to various concentrations, microplates were incubated at 37 °C overnight and read on a ChroMate 4300 Microplate Reader at 630 nm (GMI, Ramsey, MN). […] Minimal bactericidal concentration (MBC) was determined by plating the clear wells at MIC or above. The peptide concentration that caused no bacterial growth on the petri dish is MBC.

[4] = test system: monkey kidney Vero E6 cells; assay type: cell-based
Description: as §1, with “The treatment time was one hour in the case of Vero E6 cells.” left out

[5] = test system: S. aureus USA300; assay type: cell-based, Staphylococcus aureus
Description: as §3

[6] = test system: E. coli ATCC 25922; assay type: cell-based, Escherichia coli
Description: (§4) To gain additional insight, we also compared the effects of physiological saline and human serum on the antibacterial activities of WW291-WW298 using both E. coli and S. aureus (Table 3). In our assays, salts and serum were present during the entire course of the experiment. […] Thus, WW295 and WW298 stand out in terms of activity robustness (bold in Table 3).
as §3

[7] = test system: P. aeruginosa PAO1; assay type: cell-based, Pseudomonas aeruginosa
Description: as §2, §3

[8] = test system: E. coli K12; assay type: cell-based, Escherichia coli
Description: as §2, §3

[9] = test system: A. baumannii B28-16; assay type: cell-based, Acinetobacter baumannii
Description: as §2, §3

[10] = test system: E. faecium VRE; assay type: cell-based
Description: as §2, §3

[11] = test system: S. aureus USA300 LAC; assay type: cell-based, Staphylococcus aureus
Description: as §4, §3

[12] = test system: Pig RBC; assay: Hemolytic assay; assay type: cell-based
Description: (§5) Hemolytic assays of peptides were performed as previously described. Briefly, human red blood cells (hRBCs) obtained from UNMC Blood Bank, or chicken or porcine blood cells purchased from commercial sources as previously described, were washed three times with phosphate buffer saline (PBS) and diluted to a 2% solution (V/v). After peptide treatment, incubation at 37 °C for one hour, and centrifugation at 13,000 rpm, aliquots of the supernatant were carefully transferred to a fresh 96-well microplate. The amount of hemoglobin released was measured at 545 nm. The percent lysis was calculated by assuming 100% release when human blood cells were treated with 2% Triton X-100, and 0% release when incubated with PBS buffer. The peptide concentration that caused 50% lysis of hRBCs is defined as HC50.

[13] = test system: human red blood cells; assay: Hemolytic assay; assay type: cell-based
Description: as §5

[14] = test system: chicken red blood cells; assay: Hemolytic assay; assay type: cell-based
Description: as §5

[15] = test system: B. subtilis 167; assay type: cell-based, Bacillus subtilis
Description: as §2, §3

[16] = 2% RBC in PBS, 37 °C, one hour, hemoglobin at 545 nm

Sequence	THP-1, concentration that caused 50% cell death (LC50) [1] [µM]	HaCaT, concentration that caused 50% cell death (LC50) [2] [µM]	Minimal Inhibitory Concentration (MIC), SA ([3]; Mu50) [µM]	Vero Cells, concentration that caused 50% cell death (LC50) [4] [µM]	MBC, USA300 ([5]; USA300) [µM]	MIC, +150 mM NaCl ([6]; ATCC 25922) [µM]	MIC, +10% Human Serum ([6]; ATCC 25922) [µM]	MIC, TSB ([6]; ATCC 25922) [µM]	Minimal Inhibitory Concentration (MIC), PA ([7]; PAO1) [µM]	Minimal Inhibitory Concentration (MIC), EC ([8]; K12) [µM]	Minimal Inhibitory Concentration (MIC), AB ([9]; B28-16) [µM]	Minimal Inhibitory Concentration (MIC), VRE ([10]; VRE) [µM]	MIC, +150 mM NaCl ([11]; USA300) [µM]	MIC, +10% Human Serum ([11]; USA300) [µM]	MIC, TSB ([11]; USA300) [µM]	Pig RBC, concentration that caused 50% red blood cell lysis (HC50) [12] [µM]	Human RBC, concentration that caused 50% red blood cell lysis (HC50) ([13]; red cells of human) [µM]	Chicken RBC, concentration that caused 50% red blood cell lysis (HC50) [14] [µM]	Minimal Inhibitory Concentration (MIC), BS [15]; 167 [µM]	other results
LRKIWWWW [WW294]	>100	>100	12.5	>100	25	25	>25	12.5	50	12.5	12.5	25	6.2	25	6.2	>100	143	>100	25	–
WWLRKIWW [WW292]	>100	>100	12.5	>100	>25	>25	>25	12.5	25	25	12.5	>50	6.2	>25	6.2	>100	175	>100	12.5	–
WLRKIWWW [WW293]	>100	>100	12.5	>100	25	>25	>25	12.5	50	12.5 to 25	12.5	50	6.2	>25	6.2	>100	224	>100	12.5	–
KIWWWWLR [WW296]	35	100	3.1	>100	6.2	25	>25	3.1 to 6.2	50	6.2 to 12.5	12.5	25	1.6	–	1.6	>100	103	50	12.5	–
WWWWLRKI [WW298]	30	80	3.1	100	3.1	12.5	>25	12.5	50	12.5	6.25 to 12.5	12.5	1.6	12.5 to 25	1.6	37	52	70	6.25 to 12.5	–
IWWWWLRK [WW297]	38	100	–	–	–	–	–	–	–	–	–	–	–	–	–	–	–	–	–	Minimal Inhibitory Concentration (MIC), SA ([3]; S. aureus Mu50, broth microdilution, 37 °C overnight): 6.2 µM; Vero Cells, concentration that caused 50% cell death (LC50) ([4]; Vero E6, serum free media, one hour treatment, MTS assay): >100 µM; MBC, USA300 ([5]; S. aureus USA300, minimal bactericidal concentration, plating clear wells at MIC or above): 12.5 µM; MIC, TSB ([6]; E. coli ATCC 25922, TSB): 12.5 µM; MIC, +150 mM NaCl ([6]; E. coli ATCC 25922, TSB +150 mM NaCl, present during entire experiment): 12.5 µM; MIC, +10% Human Serum ([6]; E. coli ATCC 25922, TSB +10% human serum, present during entire experiment): >25 µM; Minimal Inhibitory Concentration (MIC), PA ([7]; P. aeruginosa PAO1, broth microdilution, 37 °C overnight): 50 µM; Minimal Inhibitory Concentration (MIC), EC ([8]; E. coli K12, broth microdilution, 37 °C overnight): 12.5 to 25 µM; Minimal Inhibitory Concentration (MIC), AB ([9]; A. baumannii B28-16, broth microdilution, 37 °C overnight): 6.25 to 12.5 µM; Minimal Inhibitory Concentration (MIC), VRE ([10]; E. faecium VRE, broth microdilution, 37 °C overnight): 12.5 µM; MIC, TSB ([11]; S. aureus USA300 LAC, TSB): 3.1 µM; MIC, +150 mM NaCl ([11]; S. aureus USA300 LAC, TSB +150 mM NaCl, present during entire experiment): 3.1 µM; MIC, +10% Human Serum ([11]; S. aureus USA300 LAC, TSB +10% human serum, present during entire experiment): 25 µM; Pig RBC, concentration that caused 50% red blood cell lysis (HC50) [12, 16]: 110 µM; Human RBC, concentration that caused 50% red blood cell lysis (HC50) [13, 16]: 134 µM; Chicken RBC, concentration that caused 50% red blood cell lysis (HC50) [14, 16]: 100 µM; Minimal Inhibitory Concentration (MIC), BS ([15]; B. subtilis 167, broth microdilution, 37 °C overnight): 12.5 µM
